The values below come from article PMC10704857 (Journal of medicinal chemistry, 2021).

In test [1] the target is RTA depurination of yeast ribosomes (Ricinus communis, UniProt P02879). It counts as biochemical.
Test [2] has as its system cisplatin toxicity. Format: cell-based.
The test system of test [3] is Stx2a holotoxin in Vero cells. It counts as cell-based.

`Cc1ccccc1-c1ccc(C(=O)O)s1` [RU-NT-70, 5-(o-Tolyl)thiophene-2-carboxylic Acid]: the “fold improved IC50 relative to CC10501” value in test [1] is listed as 10 fold.

On to `Cc1cccc(C)c1-c1ccc(C(=O)O)s1` [RU-NT-93, 5-(2,6-Dimethylphenyl)thiophene-2-carboxylic Acid], for which the “effect on toxicity of cisplatin” value in test [2] is “did not alter”. Also, the “inhibition of depurination by Stx2a” value in test [3] is reported as “did not protect”. For `CCc1ccccc1-c1ccc(C(=O)O)s1` [RU-NT-102, 5-(2-Ethylphenyl)thiophene-2-carboxylic Acid], the “fold improved IC50 relative to CC10501” value in test [1] amounted to 12 fold. Besides, in test [2], the “effect on toxicity of cisplatin” value was “did not alter”. Further, in test [3], the “inhibition of depurination by Stx2a” value is reported as “did not protect”. Turning to `O=C(O)c1ccc(-c2cccc3c2OCC3)s1` [RU-NT-105, 5-(2,3-Dihydrobenzofuran-7-yl)thiophene-2-carboxylic Acid], in test [1], the “protection of yeast ribosomes from depurination” value was “not active”.
